Data: patent US20060117411A1, “Enhancing plant pathogen resistance via increasing BiP levels” (priority 1998, published 2006)

Legend:
[1] = tested on: BiP mRNA; test: SA spraying of tobacco plants, Northern blot of BiP mRNA; type: in vivo, Nicotiana tabacum
Description: It has been shown that SA is involved in the induction of PR genes (reviewed by Malamy and Klessig, 1992) and that this signal molecule also induces the expression of ER chaperones (Denecke et al, 1995). We wanted to investigate whether ER chaperone induction is a consequence of the high synthesis rates of PR genes and used BiP as a model system. Tobacco plants were sprayed with SA (5 mM) and the exact timing of the SA-mediated induction of PR-gene PRI was compared to that of BiP. PR1 was chosen as a representative marker for SA-mediated induction of PR genes as its response to SA is faster and more pronounced than that of acidic chitinase, basic chitinase and basic β-1.3 glucanase (Vidal et al, 1997). […] In contrast SA-induced transcription of PR1 starts only after 6-8 hours and continues to accumulate upto 16 hours after treatment. At this time-point, BiP mRNA levels start to decrease again. We have shown previously that PR1 continuous to accumulate until 48 hours after SA treatment using the same experimental system (Vidal et al, 1997). […] BiP protein levels were also shown to increase (FIG. 7B), with a significant increase noticeable after 4-6 hours of induction.
To investigate further similarities and differences in the SA-mediated induction of BiP and PR genes, we tested if the presence of light is required for the induction. The rationale for this experiment was derived from the observation that SA inhibits catalase, resulting in an increase of active oxygen species in the plant, which would then induce PR genes such as PR1 (Chen et al, 1993). Despite the fact that the inhibition of catalase activity alone is not the key route by which PR1 is induced during SA-treatment (Chamnongpol et al, 1996), a cooperative interaction of SA and H2O2 might lead to the strong induction of PR1 (Leon et al, 1995, Chen et al, 1995). […] Tobacco plants were thus sprayed with SA (5 mM) and incubated in the presence and absence of light for 6 and 16 hours. […] The data also confirm that BiP mRNA levels increase transiently and a significant decrease in mRNA levels is detectable after 16 hours of treatment (see also FIG. 7).
We have shown that the SA-induced expression of PR1 is inhibited in a concentration dependent fashion by the presence of Erwinia carotovora culture filtrate containing cell wall-degrading enzymes (Vidal et al, 1997). […] Total RNA was extracted and the expression of chaperones was determined in relation to PR1.
In example 6 we have shown that the UPR-induced BiP gene expression is additive to the cell wall-degrading enzyme (CDE) response. […] After floating of the leaves for 2.5 h on this medium, RNA was extracted and BiP gene expression was analysed by Northern blotting. […]

[2] = tested on: tobacco protoplasts (GUS, cell viability); test: Transient expression in tobacco protoplasts (pNL200), GUS internal marker; type: cell-based, Nicotiana tabacum; settings: tunicamycin 20 μg/mL, 20 hr
Description: We have established a model system based on the comparison of protein biosynthesis in the cytosol and on the rough ER using transient expression. A plasmid was constructed (pNL200, FIG. 12A) containing two genes, one encoding the secreted barley α-amylase (Rogers, 1985) and the other encoding the cytosolic marker β-glucuronidase (GUS; Jefferson et al., 1987). α-Amylase was used to measure secretory protein biosynthesis, and GUS was used to control for transfection efficiency and overall cell viability. We compared cells under normal culture conditions with cells subjected to ER stress by treatment with tunicamycin. […]
Tobacco leaf protoplasts (from transformed or untransformed plants) were prepared, and electroporation experiments were performed as previously described (Denecke and Vitale, 1995), with minor modifications to the electroporation conditions. […] After 24 or 48 hr, the protoplasts were analysed by enzymatic assay or by protein gel blotting. […]
GUS activity in protoplasts was measured with a […] assay. six mililiters of floated protoplasts were diluted in TEX buffer (B5 salts, 250 mg/L NH4NO3, 750 mg/L CaCl2, 500 mg/L MES, and 0.4 M sucrose, pH 5.7) and were spun down by the addition of 20 mL of 250 mM NaCl. […] The absorbance was measured at 415 nm against a blank containing stop buffer that had been incubated at 37° C. for the duration of the reaction time.

Molecule | accumulation of BiP mRNA transcripts during SA-treatment in the absence of light ([1]; SA 5 mM, 6 and 16 hours, dark vs light) | time at which BiP mRNA levels reach a plateau ([1]; sprayed with SA 5 mM) [h] | time of treatment after which BiP mRNA levels are induced ([1]; sprayed with SA 5 mM) [h] | cell viability monitored with the internal marker GUS [2] | BiP transcription in SA-treated leaves floated on MS medium with tunicamycin ([1]; 5 mM SA 12 h, then tunicamycin 20 μg/mL 2.5 h)
O=C(O)c1ccccc1O [SA, Salicylic Acid] | hardly any reduction | 4 | 2 |  | 
tunicamycin |  |  |  | does not affect cell viability | further induction
